{"source": "patent US20250041316A1", "about": "“METHODS AND COMPOSITIONS FOR TREATING LIVER DISEASE” (Temple University-Of The Commonwealth System of Higher …, priority 2023, published 2025)", "key": {"mice fed with WD": {"tested_on": "mice fed with WD", "settings": "WD 8 weeks then DHT 3 weeks under WD vs WD alone 11 weeks; FIG. 5"}, "regucalcin": {"tested_on": "regucalcin", "settings": "WD+DHT vs WD mice", "procedure": "(§1) FIG. 1A depicts a representative illustration of the experimental system used to study the effects of DHT on metabolism. Mice were fed with a Western diet (WD). At 45 days of age, one group of mice were administered DHT via pellet at Week 0 and at Week 4-5 (WD+DHT). One group of WD fed mice were not administered with DHT (WD). Mice were euthanized at Week 8. Ex vivo lipolysis, histology and molecular studies were performed."}, "[1]": {"tested_on": "prolow-density lipoprotein-related protein 1", "settings": "DHT with WD vs WD alone", "procedure": "as §1"}, "[2]": {"tested_on": "female mice fed with a Western diet", "procedure": "as §1"}}, "data": [{"smiles": "C[C@]12CCC(=O)C[C@@H]1CC[C@@H]1[C@@H]2CC[C@]2(C)[C@@H](O)CC[C@@H]12", "note": "[DHT, dihydrotestosterone]", "values": [{"measurement": "liver triglyceride", "setting": "mice fed with WD", "result": "lower triglyceride"}, {"measurement": "regucalcin in liver", "setting": "regucalcin", "result": "significantly altered"}, {"measurement": "prolow-density lipoprotein-related protein 1 in liver", "setting": "[1]", "result": "significantly altered"}, {"measurement": "brown adipose cell size (histology)", "setting": "[2]; DHT with WD mice", "result": "enlarged"}, {"measurement": "triglyceride (TG) in circulation", "setting": "[2]; WD+DHT vs WD mice", "result": "Significantly elevated levels"}, {"measurement": "fat in liver (liver images)", "setting": "[2]; WD+DHT vs WD mice, FIG. 1C", "result": "lower levels of fat"}, {"measurement": "liver triglyceride level", "setting": "[2]; WD+DHT vs WD mice, FIG. 2A", "result": "lower levels"}, {"measurement": "liver cholesterol level", "setting": "[2]; WD+DHT vs WD mice, FIG. 2B", "result": "lower levels"}, {"measurement": "liver lipid deposition (oil red and H&E staining, histology)", "setting": "[2]; WD+DHT vs WD mice, FIG. 4", "result": "decreased lipid deposition"}, {"measurement": "glucose tolerance", "setting": "[2]; at 3 weeks, DHT with WD vs WD alone, adult female mice", "result": "more impaired glucose intolerance"}, {"measurement": "pyruvate tolerance", "setting": "[2]; at 6-7 weeks, DHT with WD vs WD alone, adult female mice", "result": "more impaired pyruvate tolerance"}]}]}
